Results taken from US20240174684A1, “INHIBITORS OF cGAS ACTIVITY AS THERAPEUTIC AGENTS” (BELLBROOK LABS, LLC, priority 2021, published 2024).
Read-outs that look alike come from different tables or passages of the source.

What was measured:
[1] = target: cGAS (Homo sapiens, UniProt Q8N884); test: Transcreener cGAS enzymatic assay (FP); type: biochemical
Procedure: Structural, biochemical and biophysical analysis and selectivity profiling: Potency and MOA studies, including Mn^2+ sensitivity, were performed using the Transcreener cGAS enzymatic assay, which is manufactured at BellBrook Labs (Fitchburg, Wisconsin, USA). This homogenous cGAS enzymatic assay was developed with fluorescence polarization (FP) and time-resolved Forster resonance energy transfer (TR-FRET) readouts, as described in International Patent Publication WO 2020/142729, incorporated by reference herein in its entirety. Plates are read on a PHERAstar FSX multimode reader (BMG). The compounds of the disclosure were tested for inhibition of cGAS ([…]) using this cGAS enzymatic assay under standard conditions (100 μM ATP and GTP, 62.5 nM bp ISD, 60 minute reactions), high ATP and GTP (1 mM) to mimic physiological conditions, in the presence of 200 μM MnCl2, and with mouse cGAS under standard conditions.
The IC50 values for FP under standard and under physiological conditions were determined for several exemplary compounds of the invention. The relative activities for FP Standard IC50 are shown in Table 2 below, where A represents <50 nM; B represents 50-100 nM; C represents 100-200 nM; D represents 200 nM-1μM; and E represents 1-10 μM. For the relative activities for FP Physiological IC50, A′ represents <200 nM; B′ represents 200-500 nM; C′ represents 500 nM-1μM; D′ represents 1-5 μM; and E′ represents >5 μM.

[2] = system: IFN-β production in PBMCs; test: IFNβ ELISA in human primary PBMCs; type: cell-based; details: PBMC
Source text: (§1) Cellular assays: The human monocyte cell line THP-1 and human primary PBMCs were used to evaluate the cellular activity of compounds with good biochemical potency. These cells produce a robust cGAS/STING-dependent type I IFN response when stimulated with dsDNA and other pathogen-associated molecular patterns, which was detected using a standard ELISA for IFNβ (R&D Systems). The TBK1 inhibitor, BX-795, which acts downstream of cGAS/STING, was used as a probe.
(§2) The ICso values for IFNB ELISA stimulated with THP-1, PBMC, DNA, and cGAMP were determined for several exemplary compounds of the invention, and are provided in Table 3 where A represents <1 μM; B represents 1-2.5 μM; C represents 2.5-10 μM; D represents 10-20 μM; and E represents >20 μM.
The reporter gene assays were used to assess off-target activity with IRF30Luc (RIG-1) or NFKB (TLR4); CellTiter Glo (ATP levels) and Presto Blue (reducing equivalents) were used to assess cytotoxicity; all assays were performed in dose response mode. […] The inventors recently began using human PBMCs to assess cellular potency in a more physiologically relevant context.

[3] = system: IFNβ production in THP-1 cells; test: IFNβ ELISA in THP-1 cells; type: cell-based, human; details: Homo sapiens; THP-1 cells
Source text: as §1
CETSA was also used to confirm that the compounds are binding to cGAS in cells; THP-1 cells are used for this analysis. Compounds were tested in dose response mode by incubating with cells for 1.5 hours at 37° C., followed by pelleting and re-suspending in PBS, heating to 51.5° C. for 3 min and cooling to room temp. Cells were then lysed, debris, including denatured cGAS, was pelleted and the supernatant was analyzed for soluble cGAS by Western Blot using anti-cGAS primary Ab (Cell Signaling). Band intensity was analyzed using Image J software. Stimulation with cGAMP directly activates STING, circumventing cGAS; this was used to determine if compounds had effects on downstream components of cGAS/STING signaling. The IFN-6 ELISA was used as the primary measure of cellular potency and selectivity (Table 3) and used the reporter gene assays for assessing off-target activity with other pattern recognition receptors.
as §2

[4] = system: MDR1 (P-glycoprotein); test: MDCK-MDR1 permeability A→B; type: in vitro ADME, Canine; details: dog; MDCK cells expressing human MDR1, A→B; read-out: MDCK-MDR Permeability A→B
Procedure: (§3) ADME studies: Compound A and the compounds of the disclosure were tested for aqueous solubility (KSOL), metabolic stability (human and mouse […]) and permeability (Caco-2 and/or MDR1-MDCK cells) to provide an initial indication of oral bioavailability.
(§4) The favorable physicochemical properties are reflected in promising results in in vitro ADME tests. […] Metabolic stability, which was routinely measured with mouse and human hepatocytes, is outstanding, with t, greater than 2 hours for all of the compounds of the disclosure in which it has been measured. Cell permeability was measured using MDCK cells expressing human MDR1 (P-glycoprotein) to assess passive permeability as well as active transport out of the cell. […] Numerous compounds in Table 1 meet these permeability criteria, which is consistent with their design for TPSA <140 Å^2 and increased lipophilicity.
(§5) The MDCK-MDR1 permeability A ->B is shown in Table 2 below, where A represents 5-10 cm/s×10^−6; B represents 1-5 cm/s×10^−6; and C represents <1 cm/ss×10^−6. The metabolic stability half time, in both mouse and human hepatocytes, is also shown in Table 2 below, where A′ represents 100-200 minutes; B′ represents 200-300 minutes; and C′ represents >300 minutes.

[5] = system: MDCK cells expressing human MDR1 (P-glycoprotein); test: MDCK-MDR1 permeability A→B; type: in vitro ADME, Canine
Procedure: as §3, §4, §5

[6] = high ATP and GTP (1 mM) to mimic physiological conditions, read-out: IC50 FP Physiological
[7] = standard conditions: 100 μM ATP and GTP, 62.5 nM bp ISD, 60 minute reactions, read-out: IC50 FP Standard

cGAS, sequence (Q8N884 whole entry): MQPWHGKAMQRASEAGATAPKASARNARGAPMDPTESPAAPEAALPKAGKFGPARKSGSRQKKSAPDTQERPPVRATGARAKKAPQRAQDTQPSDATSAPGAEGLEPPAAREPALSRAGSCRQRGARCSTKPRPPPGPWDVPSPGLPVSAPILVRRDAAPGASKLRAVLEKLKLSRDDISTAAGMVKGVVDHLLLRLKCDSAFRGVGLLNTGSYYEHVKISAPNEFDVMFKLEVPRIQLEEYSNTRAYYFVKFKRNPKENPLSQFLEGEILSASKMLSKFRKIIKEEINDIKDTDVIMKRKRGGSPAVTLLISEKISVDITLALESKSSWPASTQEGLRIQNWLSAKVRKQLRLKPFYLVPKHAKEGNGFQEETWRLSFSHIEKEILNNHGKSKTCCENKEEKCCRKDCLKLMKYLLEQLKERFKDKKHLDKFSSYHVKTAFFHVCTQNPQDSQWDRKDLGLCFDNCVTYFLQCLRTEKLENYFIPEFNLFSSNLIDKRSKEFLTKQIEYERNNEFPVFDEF

SMILES | IC50 [1, 6] [µM] | IC50 [1, 7] [µM] | IC50 [3] [µM] | Papp A→B [4] [×10⁻⁶ cm/s] | MDCK-MDR Permeability A→B [5] | IC50 [2] [µM]
Cc1nc(N2C[C@@H](CC(=O)Nc3ccc(N4CCCCC4)cc3)C[C@H]2C(=O)O)c2oc3ccccc3c2n1 [Compound 7, (2S,4R)-1-(2-methylbenzofuro[3,2-d]pyrimidin-4-yl)-4-(2-oxo-2-((4-(piperidin-1-yl)phenyl)amino)ethyl)pyrrolidine-2-carboxylic acid] | 1 to 5 | 0.2 to 1 | 10 to 20 | 1 to 5 |  | 10 to 20
Cc1nc(N2C[C@@H](CC(=O)Nc3ccc4ccncc4c3)C[C@H]2C(=O)O)c2oc3ccccc3c2n1 [Compound 34, (28.4R)-4-(2-(isoquinolin-7-ylamino)-2-oxoethyl)-1-(2-methylbenzofuro[3,2-d]pyrimidin-4-yl)pyrrolidine-2-carboxylic acid] | 0.2 to 0.5 | < 0.05 | 2.5 to 10 | 1 to 5 |  | 2.5 to 10
Cc1nc(N2C[C@@H](CC(=O)Nc3ccc4cccnc4c3)C[C@H]2C(=O)O)c2oc3ccccc3c2n1 [Compound 35, (28,4R)-1-(2-methylbenzofuro[3,2-d]pyrimidin-4-yl)-4-(2-oxo-2-(quinolin-7-ylamino)ethyl)pyrrolidine-2-carboxylic acid] | 0.5 to 1 | < 0.05 | 2.5 to 10 | 1 to 5 |  | 2.5 to 10
Cc1nc(N2C[C@@H](CC(=O)Nc3ccc(-c4ccc5cn[nH]c5c4)cc3)C[C@H]2C(=O)O)c2oc3ccccc3c2n1 [Compound 39, (28.4R)-4-(2-((4-(1H-indazol-6-yl)phenyl)amino)-2-oxoethyl)-1-(2-methylbenzofuro[3,2-d]pyrimidin-4-yl)pyrrolidine-2-carboxylic acid] | 0.5 to 1 | 0.1 to 0.2 | 2.5 to 10 |  |  | 2.5 to 10
Cc1nc(N2C[C@@H](CC(=O)Nc3ccc(-c4ccc(N)nc4)cc3)C[C@H]2C(=O)O)c2oc3ccccc3c2n1 [Compound 40, (2S,4R)-4-(2-((4-(6-aminopyridin-3-yl)phenyl)amino)-2-oxoethyl)-1-(2-methylbenzofuro[3,2-d]pyrimidin-4-yl)pyrrolidine-2-carboxylic acid] | 0.2 to 0.5 | < 0.05 | 10 to 20 |  |  | > 20
Cc1nc(N2C[C@@H](CC(=O)Nc3ccc(-c4ccccc4)cn3)C[C@H]2C(=O)O)c2oc3ccccc3c2n1 [Compound 67, (2S,4R)-1-(2-methylbenzofuro[3,2-d]pyrimidin-4-yl)-4-(2-oxo-2-((5-phenylpyridin-2-yl)amino)ethyl)pyrrolidine-2-carboxylic acid] | 0.5 to 1 | 0.05 to 0.1 | 2.5 to 10 | 5 to 10 |  | 

The next lines start with results.

IC50 [1, 6] [µM] | IC50 [1, 7] [µM] | IC50 [3] [µM] | Papp A→B [4] [×10⁻⁶ cm/s] | MDCK-MDR Permeability A→B [5] | SMILES | IC50 [2] [µM]
> 5 | 0.2 to 1 | 1 to 2.5 | 5 to 10 |  | Cc1nc(N2C[C@@H](CC(=O)Nc3ccc(OC(F)(F)F)cc3)C[C@H]2C(=O)O)c2oc3ccccc3c2n1 [Compound 12, (2S,4R)-1-(2-methylbenzofuro[3,2-d]pyrimidin-4-yl)-4-(2-oxo-2-((4-(trifluoromethoxy)phenyl)amino)ethyl)pyrrolidine-2-carboxylic acid] | 2.5 to 10
1 to 5 | 0.1 to 0.2 | 2.5 to 10 | 1 to 5 |  | Cc1nc(N2C[C@@H](CC(=O)Nc3cccc(Cl)c3)C[C@H]2C(=O)O)c2oc3ccccc3c2n1 [Compound 22, (2S,4R)-4-(2-((3-chlorophenyl)amino)-2-oxoethyl)-1-(2-methylbenzofuro[3,2-d]pyrimidin-4-yl)pyrrolidine-2-carboxylic acid] | 10 to 20
1 to 5 | 0.2 to 1 | 10 to 20 | 1 to 5 |  | Cc1nc(N2C[C@@H](CC(=O)Nc3ccc(C(F)(F)F)cc3)C[C@H]2C(=O)O)c2oc3ccccc3c2n1 [Compound 24, (28.4R)-1-(2-methylbenzofuro[3,2-d]pyrimidin-4-yl)-4-(2-oxo-2-((4-(trifluoromethyl)phenyl)amino)ethyl)pyrrolidine-2-carboxylic acid] | 10 to 20
1 to 5 | 0.1 to 0.2 | 2.5 to 10 |  | C (C represents <1 cm/ss×10^−6) | Cc1nc(N2C[C@@H](CC(=O)Nc3ccc4cnccc4c3)C[C@H]2C(=O)O)c2oc3ccccc3c2n1 [Compound 33, (2S,4R)-4-(2-(isoquinolin-6-ylamino)-2-oxoethyl)-1-(2-methylbenzofuro[3,2-d]pyrimidin-4-yl)pyrrolidine-2-carboxylic acid] | 10 to 20
0.5 to 1 | 0.1 to 0.2 | > 20 |  |  | Cc1nc(N2C[C@@H](CC(=O)Nc3ccc(-c4ccnc(N)c4)cc3)C[C@H]2C(=O)O)c2oc3ccccc3c2n1 [Compound 41, (28.4R)-4-(2-((4-(2-aminopyridin-4-yl)phenyl)amino)-2-oxoethyl)-1-(2-methylbenzofuro[3,2-d]pyrimidin-4-yl)pyrrolidine-2-carboxylic acid] | > 20
0.5 to 1 | 0.05 to 0.1 | > 20 |  |  | Cc1nc(N2C[C@@H](CC(=O)Nc3ccc(-c4cccc(N)n4)cc3)C[C@H]2C(=O)O)c2oc3ccccc3c2n1 [Compound 42, (2S,4R)-4-(2-((4-(6-aminopyridin-2-yl)phenyl)amino)-2-oxoethyl)-1-(2-methylbenzofuro[3.2-d]pyrimidin-4-yl)pyrrolidine-2-carboxylic acid] | > 20
0.5 to 1 | 0.1 to 0.2 | > 20 |  |  | Cc1nc(N2C[C@@H](CC(=O)Nc3ccc(-c4cccnc4N)cc3)C[C@H]2C(=O)O)c2oc3ccccc3c2n1 [Compound 43, (28.4R)-4-(2-((4-(2-aminopyridin-3-yl)phenyl)amino)-2-oxoethyl)-1-(2-methylbenzofuro[3,2-d]pyrimidin-4-yl)pyrrolidine-2-carboxylic acid] | > 20
< 0.2 | < 0.05 | 10 to 20 |  |  | Cc1nc(N2C[C@@H](CC(=O)Nc3ccc(-c4cccc(O)c4)cc3)C[C@H]2C(=O)O)c2oc3ccccc3c2n1 [Compound 51, (2S,4R)-4-(2-((3′-hydroxy-[1,1′-biphenyl]-4-yl)amino)-2-oxoethyl)-1-(2-methylbenzofuro[3,2-d]pyrimidin-4-yl)pyrrolidine-2-carboxylic acid] | > 20
